“Also recorded” adds a separate entry of the source.
Columns and labels:
[1] = system: E. coli BL21 (DE3) cells with/without the kasH or kasF gene; test: Disc diffusion assay (resistance assay); type: cell-based
Description: KSM susceptibility and production were confirmed by disc diffusion assay. An E. coli culture was grown at 37 °C overnight and spread on an LB agar plate (pH 7.0). About 5 µL of extracted samples from Streptomyces lividans TK64 (from days 2–5) were loaded onto the paper disc. The disc was placed onto the surface of an LB agar plate and incubated at 37 °C overnight to visualize the zone of inhibition (ZOI).
For the KSM resistant assay, BL21 cells with/without the kasH or kasF gene were individually expressed and seeded on LB agar plates (pH 7.0). About 5 µL of different aminoglycoside antibiotics (amikacin, gentamicin, sisomicin, streptothricin-F, or tobramycin) were loaded onto each paper disc and placed on the surface of the LB plates. The plates were incubated 37 °C overnight to visualize the appearance of the zone of inhibition (ZOI). Note: this is a standard protocol for evaluating the effectiveness of common antibiotics, including aminoglycosides; there is no apparent impact concerning the structural integrity or biological deterioration of the selected aminoglycosides at pH 7.0 during the examining course.

KasQ [2] = target: T1, KasQ (Streptomyces kasugaensis, UniProt A0A0K1H2R6); test: Isothermal titration calorimetry (ITC) of KasQ wild type versus substrates; type: binding; settings: ITC, KasQ wild type; for Kd: 25 °C, 50 mM HEPES pH 8.0, 100 mM NaCl;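 as to all read-outs here: titration of 1 mM substrate into 0.1 mM KasQ, 18 injections spaced 120 s, data fitted to a single-site binding model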
T1 sequence (A0A0K1H2R6 entry or part of it): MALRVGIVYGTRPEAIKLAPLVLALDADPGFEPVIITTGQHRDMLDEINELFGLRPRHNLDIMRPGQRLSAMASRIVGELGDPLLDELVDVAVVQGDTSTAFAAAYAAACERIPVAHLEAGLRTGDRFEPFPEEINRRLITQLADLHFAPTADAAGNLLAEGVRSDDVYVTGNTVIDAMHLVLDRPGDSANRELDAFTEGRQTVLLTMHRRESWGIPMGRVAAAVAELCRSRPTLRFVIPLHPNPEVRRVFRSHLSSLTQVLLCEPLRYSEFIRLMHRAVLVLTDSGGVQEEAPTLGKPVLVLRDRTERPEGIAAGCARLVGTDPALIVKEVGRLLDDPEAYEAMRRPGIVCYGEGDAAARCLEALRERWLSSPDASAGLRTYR
Description: (§3) ITC analyses were carried out at 25 °C using an ITC200 microcalorimeter (MicroCal Inc., Northampton, MA, USA). […] The titration experiment contains 18 injections (2 μL for a duration of 4 s) and each injection was separated by 120 s. The distilled water was filled in the reference cell throughout all titrations. The cell stirring speed was 1000 rpm. The collected raw data were processed in Origin 7.0 (provided by MicroCal) by a non-linear least square method to a single-site binding model.

KasF = test: HPLC acetylation assay with KasF and AcCoA; type: biochemical, Streptomyces kasugaensis; settings: 1 mM substrate, 0.5 mM AcCoA, 37 °C, 12 h
KasQ Q95E = KasQ Q95E (Streptomyces kasugaensis, UniProt A0A0K1H2R6, Q95E); test: biochemical; type: binding
Chain of KasQ Q95E (A0A0K1H2R6 entry or part of it Q95E): as the sequence (A0A0K1H2R6 entry or part of it) above, with Q95E counted along it
Description: (§1) Site-directed mutagenesis was performed using QuikChange (Stratagene), following the manufacturer’s protocol. The wild-type KasQ plasmid (BCRC12349) was used as the template for the single mutation. All mutations were confirmed by DNA sequencing. KasQ mutants were expressed and purified with the same protocol as used for the wild-type protein.
(§2) The cell stirring speed was 1000 rpm.

KasQ E308A = KasQ E308A (Streptomyces kasugaensis, UniProt A0A0K1H2R6, E308A); test: biochemical; type: binding; settings: ITC; KasQ mutant E308A
Chain of KasQ E308A (A0A0K1H2R6 entry or part of it E308A): as the sequence (A0A0K1H2R6 entry or part of it) above
Description: as §1, §2

KasQ Q95A = KasQ Q95A (Streptomyces kasugaensis, UniProt A0A0K1H2R6, Q95A); test: biochemical; type: binding
Chain of KasQ Q95A (A0A0K1H2R6 entry or part of it Q95A): as the sequence (A0A0K1H2R6 entry or part of it) above, with Q95A counted along it
Description: as §1, §2

KasQ [3] = target: T1, KasQ; test: HPLC kinetic analysis of KasQ epimerization; type: biochemical; settings: KasQ_WT with UDP-GlcNAc and 1 mM MgCl2, 25 mM Tris pH 8.0, 37 °C
Description: The reaction mixture was mixed by vortex and incubated at 37 °C. Reactions were stopped at six different time points (10, 30, 60, 120, 180, and 240 min) by adding equal volumes of chloroform. Precipitation was removed by centrifugation and analyzed by HPLC-LTQ-MS using HPLC method B as described above. […] The Michaelis–Menten curve of the KasQ activity was derived from the integrated peak area of each reaction.

KasQ E308Q = KasQ E308Q (Streptomyces kasugaensis, UniProt A0A0K1H2R6, E308Q); type: binding; settings: ITC; KasQ mutant E308Q
Chain of KasQ E308Q (A0A0K1H2R6 entry or part of it E308Q): as the sequence (A0A0K1H2R6 entry or part of it) above
Description: as §1, §2

KasH [4] = target: T2, KasH (Streptomyces kasugaensis, UniProt A0A0K1H2T0); test: ITC of KasH versus ligands;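 also: isothermal titration calorimetry at 25 °C, 0.1 mM KasH in the cell titrated with 1 mM ligand over 18 injections, data fit with a one-site binding model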
Description: as §3

KasH [5] = target: T2, KasH; test: HPLC acetylation assay with KasH and AcCoA; type: biochemical; settings: 1 mM substrate, 0.5 mM AcCoA, 37 °C, 12 h
[6] = target: KasQ (Streptomyces kasugaensis); test: not stated; oligomeric state of the purified protein in solution (Figure S3: protein overexpression and purification); the method is not named in the text shown
[7] = target: the molecule itself; test: as above
[8] = E. coli BL21 with/without the kasH or kasF gene, all conditions

## CN[C@@H]1[C@@H](O)[C@@H](O[C@@H]2[C@@H](O)[C@H](O[C@H]3OC(CN)=CC[C@H]3N)[C@@H](N)C[C@H]2N)OC[C@]1(C)O [sisomicin]
[1]; [8]
  zone of inhibition (ZOI): appearance of ZOI in all conditions

## NC1C(OP(=O)(O)OP(=O)(O)OCC2OC(n3ccc(=O)[nH]c3=O)C(O)C2O)OC(CO)C(O)C1O (stereo not shown) [UDP-GlcNH2]
KasQ [2]
  ∆G: NBD
  ∆H: NBD
  ∆S: NBD
  Kd: Neither UDP-GlcNH2 that was enzymatically synthesized using the published procedure [38] nor AMP, ADP, ATP, GMP, GDP, or GTP shows detectable binding affinity and NBD
KasF
  acetylation by KasF: not subject to acetylation of KasF; also recorded: could not observe the formation of UDP-GlcNAc

## CC(=O)NC1C(OP(=O)(O)OP(=O)(O)OCC2OC(n3ccc(=O)[nH]c3=O)C(O)C2O)OC(CO)C(O)C1O (stereo not shown) [UDP-GlcNAc 1, UDP-N-acetyl-glucosamine]
KasQ Q95E
  Kd: 14.2 µM
KasQ Q95E; ITC binding stoichiometry, KasQ mutant Q95E
  n: 0.7 ± 0.0
KasQ Q95E; ITC, KasQ mutant Q95E
  ∆G: -6.607 ± 0.0679 kcal/mol
  ∆H: -0.6141 ± 0.0679 kcal/mol
  ∆S: 20.1 cal mol-1 K-1
KasQ E308A
  Kd: NBD
  ∆G: NBD
  ∆H: NBD
  ∆S: NBD
KasQ Q95A
  Kd: 45.2 µM
KasQ Q95A; ITC binding stoichiometry, KasQ mutant Q95A
  n: 1.6 ± 0.1
KasQ Q95A; ITC, KasQ mutant Q95A
  ∆G: -5.939 ± 0.1764 kcal/mol
  ∆H: -0.7212 ± 0.1764 kcal/mol
  ∆S: 17.5 cal mol-1 K-1
KasQ [2]
  ∆G: NBD
  ∆H: NBD
  ∆S: NBD
  Kd: NBD
KasQ [3]; listed as UDP-GlcNAC
  kcat: 1.33 (± 0.24) s^−1
KasQ [3]; listed as UDP-GlcNAc
  kcat: 1.33 s⁻¹
KasQ E308Q
  Kd: NBD
  ∆G: NBD
  ∆H: NBD
  ∆S: NBD

## NC[C@H]1O[C@H](O[C@H]2[C@H](O)[C@@H](O[C@H]3O[C@H](CO)[C@@H](O)[C@H](N)[C@H]3O)[C@H](N)C[C@@H]2N)[C@H](N)[C@@H](O)[C@@H]1O [kanamycin B]
[1]; [8]
  zone of inhibition (ZOI): appearance of ZOI in all conditions

## C[C@H]1O[C@H](O[C@H]2[C@H](O)[C@@H](O)[C@@H](O)[C@H](O)[C@@H]2O)[C@@H](N)C[C@@H]1NC(=N)C(=O)O [KSM, Kasugamycin]
[1]; E. coli BL21 (DE3) carrying the kasF gene, disc ~5 μL of 7.6 mg/mL KSM
  growth of E. coli in the presence of KSM: moderate growth
[1]; E. coli BL21 (DE3) carrying the kasH gene, disc ~5 μL of 7.6 mg/mL KSM
  growth of E. coli in the presence of KSM: not affected
[1]; E. coli BL21 (DE3) with empty pET28a+ (no acetyltransferase gene), disc ~5 μL of 7.6 mg/mL KSM
  zone of inhibition (ZOI): clear zone of inhibition
KasH [4]; ITC binding stoichiometry, KasH, 50 mM MOPS pH 7.5, 100 mM NaCl
  n: 1.0 ± 0.1
KasH [4]; ITC, KasH
  ∆G: -5.804 ± 0.4705 kcal/mol
  ∆H: -2.316 ± 0.4705 kcal/mol
  ∆S: 11.7 cal mol-1 K-1
KasH [4]; ITC, KasH, 50 mM MOPS pH 7.5, 100 mM NaCl
  Kd: 56.1 µM
KasH [4]; ITC, higher than AcCoA
  binding affinity versus KasH relative to AcCoA: 2.9 fold
KasH [4]; ITC, higher than CoA
  binding affinity versus KasH relative to CoA: 1.7 fold
KasH [5]
  acetylation by KasH: completely acetylated
KasF
  acetylation by KasF: partially acetylated

## CNC(C)C1CCC(N)C(OC2C(N)CC(N)C(OC3OCC(C)(O)C(NC)C3O)C2O)O1 (stereo not shown) [gentamicin]
[1]; [8]
  zone of inhibition (ZOI): appearance of ZOI in all conditions

## NCC[C@H](O)C(=O)N[C@@H]1C[C@H](N)[C@@H](O[C@H]2O[C@H](CN)[C@@H](O)[C@H](O)[C@H]2O)[C@H](O)[C@H]1O[C@H]1O[C@H](CO)[C@@H](O)[C@H](N)[C@H]1O [amikacin]
[1]; [8]
  zone of inhibition (ZOI): appearance of ZOI in all conditions

## NC[C@H]1O[C@H](O[C@H]2[C@H](O)[C@@H](O[C@H]3O[C@H](CO)[C@@H](O)[C@H](N)[C@H]3O)[C@H](N)C[C@@H]2N)[C@H](N)C[C@@H]1O [tobramycin]
[1]; [8]
  zone of inhibition (ZOI): appearance of ZOI in all conditions

## KasQ (enzyme)
[6]
  stoichiometry N: 2

## NCCC[C@H](N)CC(=O)N[C@@H]1[C@H](O)[C@@H](OC(N)=O)[C@@H](CO)O[C@H]1NC1=N[C@@H]2C(=O)NC[C@@H](O)[C@H]2N1 [streptothricin-F]
[1]; [8]
  zone of inhibition (ZOI): appearance of ZOI in all conditions

B1: KasH (enzyme, Streptomyces kasugaensis, UniProt A0A0K1H2T0 1-130, looked up)
chain: MTITYEWRGGFDNAALNALHADGFGPPIAQTDWRTRLERHSLGWVCAWEDGLIGFVNVVWDGGAHAFILDTVVARHCRSRGVGAALVAKAADEARAANCEWLHVDFEEHLRAFYFDACGFKETTAGLIAL
notes: KasH, acetyltransferase of the kasugamycin biosynthetic gene cluster, Streptomyces kasugaensis; gene amplified and cloned into pET28a+; also called acetyltransferase KasH; source: E. coli BL21, purified (Ni-agarose, gel filtration)
[7]
  stoichiometry N: 2
